According to PMC10504751, “Chalcone/1,3,4-Oxadiazole/Benzimidazole hybrids as novel anti-proliferative agents inducing apoptosis and inhibiting EGFR & BRAFV^600E” (BMC Chemistry, 2023):
Values joined by “and” are separate entries in the source; they are usually repeats but may differ in a detail not shown here. Equal entries are not always repeated.

Tests used:
MCF-7 cells [1] = assay: Cell cycle analysis; format: cell-based, human; conditions: MCF-7, IC50 (0.95 µM), 24 h
Description: From the previous results, it was concluded that compound 7k might arrest cells at G1/S and prevent it from entering G2/M phase as indicated by decreased percentage of accumulation of cells in G2/M phase compared to control.

MCF-7 cells [2] = assay: Annexin V-FITC/PI apoptosis detection; format: cell-based, human; conditions: MCF-7, IC50 (0.95 µM), 24 h
Protocol: To further study the root for cytotoxic activity of compound 7k, Annexin V-FITC/PI assay method^40, 41 was used to investigate its capability to induce apoptosis.
Apoptosis was determined by flow cytometry based on the Annexin-V-fluoresce in isothiocyanate (FITC) and propidium iodide (PI) staining kit (BD Pharmingen, San Diego, USA) See Appendix A.
Apoptosis was determined by flow cytometry based on the Annexin-V-fluoresce in isothiocyanate (FITC) and propidium iodide (PI) staining kit (BD Pharmingen, San Diego, USA.^15^,1^6 […] Apoptotic cells were defined as Annexin-V-positive. […] Treated cells were trypsinized, washed twice with PBS and transferred into micro centrifuge tubes for centrifugation at1000 rpm for 5 min at room temperature, then resuspended in binding buffer, 5 μL of FITC and PI were added to per eppendorf tube, cells were vortexed, incubated for 15 min at room temperature in dark. Subsequently, cells were analyzed by flow cytometry (Becton Dickinson, Franklin Lakes, and USA).

[3] = tested on: Panc-1, A-549, MCF-7 and HT-29; assay: Propidium iodide anti-proliferative assay, four cell lines together; format: cell-based; conditions: Homo sapiens; range over Panc-1, A-549, MCF-7, HT-29; read-out: IC50 range on the four tested cell lines
Protocol: The propidium iodide (PI) tests^31, 32 were further used for assessment of the IC50 of all synthesized compounds and compared to Doxorubicin as a positive control against four cancer cell lines; pancreatic cancer cell line (Panc-1), epithelial line cancer cell (A-549), breast cancer cell line (MCF-7), and colon cancer cell line (HT-29).
Using the propidium iodide fluorescence assay with doxorubicin as the reference drug, IC50 of the 24 compounds 7a-x, was carried out according to a previously reported procedure^31, 32 against a panel of four human cancer cell lines; epithelial cancer cell line (A-549), breast cancer cell line (MCF-7), colon cancer cell line (HT-29) and pancreas cancer cell line (Panc-1). Compounds 7a-x were incubated with cancer cells for 2 days at different concentrations. See Appendix A.
To explore the antiproliferative potential of compounds propidium iodide fluorescence assay was performed using different cell lines (melanoma cancer cell line LOX-IMVI, pancreatic cancer cell line (Panc-1), epithelial line cancer cell (A-549), breast cancer cell line (MCF-7), and colon cancer cell line (HT-29). To calculate the total nuclear DNA, a fluorescent dye (propidium iodide, PI) is used which can attach to the DNA,^9,^10 thus offering a quick and precise technique. PI cannot pass through the cell membrane and its signal intensity can be considered as directly proportional to the quantity of cellular DNA. Cells whose cell membranes are damaged or have changed permeability are counted as dead ones. The assay was performed by seeding the cells of different cancer cell lines at a density of 3000-7500 cells/well (in 200µl medium) in culture plates followed by incubation for 24h at 37 °C in humidified 5% CO2/95% air atmospheric conditions. […] A fluorometer (Polar-Star BMG Tech) was used to record the readings at excitation and emission wavelengths of 530 and 620 nm for each well. The percentage cytotoxicity of compounds was calculated using the following formula:
Where ATC= Absorbance of treated cells and AC= Absorbance of control. […]

[4] = tested on: Caspase-3 in MCF-7 breast cancer cells; assay: Caspase-3 assay; conditions: for Caspase-3 Fold change: MCF-7, vs untreated control; for Caspase-3 Conc: MCF-7 breast cancer cells
Protocol: All reagents were allowed to reach room temperature before use. All liquid reagents were gently mixed before use. The number of 8-well strips needed for the assay was determined. These were inserted into the frame(s) for current use. A total of 100 µL of the Standard Diluent Buffer was added to the zero standard wells. Well(s) reserved for chromogen blank were left empty. A total of 100 µL of standards and controls or diluted samples was added to the appropriate microtiter wells. The sample dilution chosen was optimized for each experimental system. The side of the plate was gently tapped on to
mix. Wells were covered with a plate cover and incubated for 2 h at room temperature. The solution was thoroughly aspirated or decanted from the wells and the liquid was discarded; wells were washed four times. […] The side of the plate was gently tapped on to mix. The plate was covered with a plate cover and incubated for 1h at room temperature. The solution was thoroughly aspirated or decanted from wells and the liquid was discarded; wells were washed four times. A total of 100 µL Anti-Rabbit IgG HRP Working Solution was added to each well except the chromogen blank(s). The working dilution was prepared as described in Preparing IgG HRP. Wells were covered with the plate cover and incubated for 30 min at room temperature. The solution was thoroughly aspirated or decanted from the wells and the liquid was discarded. Wells were washed four times. A total of 100 µL of Stabilized Chromogen was added to each well. The liquid in the wells began to turn blue. It was incubated for 30 min at room temperature and in the dark. The incubation time for chromogen substrate was determined by the microtiter plate reader used. Many plate readers have the capacity to record a maximum optical density (O.D.) of 2.0. The O.D. values were monitored, and the substrate reaction was stopped before the O.D. of the positive wells exceeds the limits of the instrument. The O.D. values at 450 nm could only be read after the Stop Solution had been added to each well. A total of 100 µL of Stop Solution was added to each well. The side of the plate was gently tapped to mix. The solution in the wells changed from blue to yellow. The absorbance of each well was read at 450 nm, having blanked the plate reader against a chromogen blank composed of 100 µL each of Stabilized Chromogen and Stop Solution. The plate was read within 2 h after adding the Stop Solution. A curve fitting software was used to generate the standard curve.
The concentrations for unknown samples and controls from the standard curve were read. Value(s) obtained for sample(s) by the appropriate dilution factor were multiplied to correct for the dilution in step 3.

BAX in MCF-7 = assay: BAX activation assay; conditions: for BAX Conc: MCF-7; for BAX Fold change: MCF-7, vs untreated control
Protocol: All reagents were brought to room temperature for at least 30 min before opening (except the human BAX-α Standard). Human BAX-α Standard solution was not be left at room temperature for more than 10 min. Duplicates of all standards, controls, and samples were run. The Assay Layout Sheet was used to determine the number of wells to be used, and any remaining wells were put with the desiccant back into the pouch, and the ziplock was sealed. Unused wells were stored at 4 ◦C. A total of 100 µL of Assay Buffer was pipetted into the S0 (0 pg/mL standard) wells. A total of 100 µL of Standards #1 through #6 was pipetted into the appropriate wells. A total of 100 µL of the samples was pipetted into the appropriate wells. The plate was gently tapped to mix the contents. The plate was sealed and incubated at room temperature on a plate shaker for 1 h at ~500 rpm. The contents of the wells were emptied and washed by adding 400 µL of wash solution to every well. The wash was repeated four more times for a total of five washes. After the final wash, the wells were emptied or aspirated and firmly the plate on a lint-free paper towel was tapped to remove any remaining wash buffer. A total of 100 µL of yellow antibody was pipetted into each well, except the Blank. The plate was sealed and incubated at room temperature on a plate shaker for 1 h at ~500 rpm. The contents of the wells were emptied and washed by adding 400 µL of wash solution to every well. The wash was repeated four more times for a total of five washes. After the final wash, the wells were emptied or aspirated, and the plate was firmly tapped on a lint-free paper towel to remove any remaining wash buffer. A total of 100 µL of blue Conjugate was added to each well, except the Blank. The plate was sealed and incubated at room temperature on a plate shaker for 30 min at ~500 rpm. The contents of the wells were emptied and washed by adding 400 µL of wash solution to every well. The wash was repeated four more times for a total of five washes. After the final wash, the wells were emptied or aspirated and the plate was firmly tapped on a lint-free paper towel to remove any remaining wash buffer. A total of 100 µL of Substrate Solution was pipetted into each well. It was incubated for 30 min at room temperature on a plate shaker at ~500 rpm. A total of 100 µL Stop Solution was pipetted into to each well. The plate reader was blanked against the Blank wells, and the optical density was read at 450 nm. The average net optical density (OD) bound for each standard and sample was calculated by subtracting the average Blank OD from the average OD for each standard and sample. Using linear graph paper, the Average Net OD for each standard versus BAX concentration in each standard were plotted. A straight line was approximated through the points. The concentration of BAX in the unknowns could be determined by interpolation.

Bcl-2 in MCF-7 = assay: Bcl-2 inhibition assay; conditions: for Bcl-2 Conc: MCF-7; for Bcl-2 Fold reduction: MCF-7, vs untreated control
Protocol: All reagents were thoroughly mixed without foaming before use. The microwells were washed twice with approximately 300 µL Wash Buffer per well with the thorough aspiration of microwell contents between washes. Care was taken not to scratch the surface of the microwells. After the last wash, the wells were emptied and microwell strips were tapped on an absorbent pad or paper towel to remove excess Wash Buffer. The microwell strips were used immediately after washing or placed upside down on a wet absorbent paper for not longer than 15 min. Wells were not allowed to dry. A total of 100 µL of Sample Diluent was added in duplicate to all standard wells and the blank wells. Standard (1:2 dilution) in duplicate was prepared ranging from 32 to 0.5 ng/mL. A total of 100 µL of Sample Diluent, in duplicate, was added to the blank wells. A total of 80 µL of Sample Diluent, in duplicate, was added to the sample wells. A total of 20 µL of each sample, in duplicate, was added to the designated wells. A total of 50 µL of diluted biotin was added, conjugated to all wells, including the blank wells. It was covered with a plate cover and incubated at room temperature on a microplate shaker at 100 rpm for 2 h. The plate cover was removed and the wells were emptied. Microwell strips were washed times as described in Step 2. A total of 100 µL of diluted Streptavidin-HRP was added to all wells, including the blank wells. It was covered with a plate cover and incubated at room temperature on a microplate shaker at 100 rpm for 1 h. The plate cover was removed and the wells were emptied. Microwell strips were washed three times, as described in Step 2. A total of 100 µL of mixed TMB Substrate Solution was pipetted into all wells, including the blanks. The microwell strips were incubated at room temperature (18 ◦C to 25 ◦C) for about 15 min, on a rotator set at 100 rpm. Direct exposure to intense light was avoided. The point at which the substrate reaction is stopped was determined by the ELISA reader. Many ELISA readers record absorbance only up to 2.0 O.D. Therefore, the color development within individual microwells was watched by the person running the assay, and the substrate reaction was stopped before positive wells were no longer properly detectable. The enzyme reaction was stopped by quickly pipetting 100 µL of Stop Solution into each well, including the blank wells. It was important that the Stop Solution was spread quickly and uniformly throughout the microwells to inactivate the enzyme completely. Results were read immediately after the Stop Solution was added or within one hour if the microwell strips were stored at 2–8 ◦C in the dark. The absorbance of each microwell was read on a spectrophotometer using 450 nm as the primary wavelength.

| SMILES | percentage of cells in G2/M phase (MCF-7 cells [1]; control 12.22%) | percentage of cells in S phase (MCF-7 cells [1]; control 29.51%) | percentage of cells in G0-G1 phase (MCF-7 cells [1]; control 58.27%) | early apoptosis (MCF-7 cells [2]) | late apoptosis (MCF-7 cells [2]) | necrosis (MCF-7 cells [2]) | IC50 [3] | Caspase-3 Fold change [4] | Caspase-3 Conc [4] | BAX Conc (BAX in MCF-7) | BAX Fold change (BAX in MCF-7) | Bcl-2 Conc (Bcl-2 in MCF-7) | Bcl-2 Fold reduction (Bcl-2 in MCF-7) |
| --- | --- | --- | --- | --- | --- | --- | --- | --- | --- | --- | --- | --- | --- |
| COc1ccc(-c2nc3cc(-c4nnc(SCC(=O)Nc5ccc(C(=O)/C=C/c6ccccc6)cc5)o4)ccc3[nH]2)cc1 [Compound 7k, 2-{5-[2-(4-Methoxyphenyl)-1 H-benzo[d]imidazol-5-yl]-1,3,4-oxadiazol-2-ylthio}-N-{4-[(E)-3-phenylacryloyl]phenyl}acetamide] | 3.19% | 34.86% | 61.95% | 28.71% | 12.63% | 3.05% | 950 to 1400 nM | 8 fold and 7.60 fold | 501.60 ± 4.00 pg/mL | 279.50 pg/mL and 279.500 pg/mL | 33 fold and 33.0 fold | 0.94 ng/mL and 0.940 ng/mL | 5.4 fold |
| COc1ccc(-c2nc3cc(-c4nnc(SCC(=O)Nc5ccc(C(=O)/C=C/c6ccc(Cl)cc6)cc5)o4)ccc3[nH]2)cc1 [Compound 7l, 2-{5-[2-(4-Methoxyphenyl)-1 H-benzo[d]imidazol-5-yl]-1,3,4-oxadiazol-2-ylthio}-N-{4-[(E)-3-(4-chlorophenyl)acryloyl]phenyl}acetamide] |  |  |  |  |  |  | 1100 to 1650 nM | 7.50 fold | 492.50 ± 4.00 pg/mL | 271 pg/mL and 271.600 pg/mL | 32 fold and 32.0 fold | 0.97 ng/mL and 0.975 ng/mL | 5.2 fold |
| COc1ccc(/C=C/C(=O)c2ccc(NC(=O)CSc3nnc(-c4ccc5[nH]c(-c6ccc(OC)cc6)nc5c4)o3)cc2)cc1 [Compound 7m, 2-{5-[2-(4-Methoxyphenyl)-1 H-benzo[d]imidazol-5-yl]-1,3,4-oxadiazol-2-ylthio}-N-{4-[(E)-3-(4-methoxyphenyl)acryloyl]phenyl}acetamide] |  |  |  |  |  |  |  | 7.20 fold | 473.60 ± 3.50 pg/mL | 268.200 pg/mL | 31.5 fold | 1.050 ng/mL | 4.9 fold |
